In publication PMC4769088, “Antifungal Activity and Action Mechanism of Histatin 5-Halocidin Hybrid Peptides against Candida ssp” (PLoS ONE, 2016) one finds MICs and MIC values data, which are given here for 6 compounds.

The subject of assay [1] is C.albicans SC5413. It is filed as cell-based, Candida albicans. Particulars: SC5413, 24 h. The procedure: (§1) To determine the candidacidal activity of the peptides, we used Candida strains obtained from the Culture collection of antimicrobial resistant microbes at Seoul Women’s University in Korea. These included three Candida albicans (CCARM 14020, 14021, 14022), Candida guillermondi and Candida tropicalis. In addition, Candida albicans SC5413 was kindly provided by Dr Jeong-Yoon Kim at the Department of Microbiology & Molecular Biology, Chungnam University, Korea. Yeast were cultured overnight at 30°C in 10 ml of yeast extract-peptone-dextrose (YPD) broth (Qbiogene), then diluted in 10 ml of YPD broth to OD600 = 0.2 and grown for an additional 4 h with shaking at 30°C until OD600 = 0.8 in order to obtain mid-log phase cultures. The peptides (Hst 5, P113, HHP1, HHP2, PH1, PH2, di-PH1, di-PH2, WP1, di-WP2, di-15Hc and di-18Hc) in this study were synthesized by using standard solid-phase synthesis protocols and were purified by reversed-phase high-performance liquid chromatography at Anygen Inc. (Korea). FITC-labeled peptides (F-Hst5, F-P113, F-HHP1, F-di-PH2, F-di-WP2 and F-di-18Hc) were also synthesized by 6-aminohexnoic acid linker at Anygen (Korea) for confocal experiments.
(§2) The candidacidal activities of the peptides were tested by using standard microdilution plate assays, radial diffusion assays and broth dilution assay slightly modified from the procedure recommended by the National Committee for Clinical Laboratory Standards. For the candidacidal assays, C. albicans cells were grown in YPD medium and washed twice with 10 mM sodium phosphate buffer (NaPB; Na2HPO4, NaH2PO4, pH 7.4). The cells (1 x 10^6) were then mixed with different concentrations of peptides and incubated at 30°C with constant shaking for 60 min. For energy depletion experiments, cells were pre-incubated with 10 mM NaPB containing 5 mM NaN3 at 30°C for 60 min before the addition of peptides. The cell suspensions were diluted in 10 mM NaPB and aliquots of 500 cells were spread onto YPD agar plates then incubated for 24 h at 30°C to visualize the surviving colonies. Cell survival was expressed as a percentage of that for the control, and the loss of viability was calculated as [1 x (number of colonies from peptide-treated cells/number of colonies from control cells)] x 100. Candidacidal assays were performed in triplicate. For the radial diffusion assay, C. albicans cells were grown in YPD medium overnight and washed twice with 10 mM NaPB. Washed yeast-phase C. albicans cells (1 x 10^6 CFU) were trapped in thin underlay gels containing 9 mM sodium phosphate, 1 mM sodium citrate buffer, 1% (wt/vol) agarose (A6013; Sigma), and 0.3 mg of Sabouraud dextrose broth (Difco)/ml. After incubation at 37°C for 3 h, a 10 ml overlay gel of 1% agarose and 6% Sabouraud dextrose broth was poured on the underlay gel and then the plates were incubated overnight at 37°C. The clear-zone diameters were measured to the nearest 0.1 mm and graphed against the peptide concentration. Zone diameters were expressed in units (0.1 mm = 1 unit). For the broth dilution assay, the Candida strains were cultured in LYM broth for 18 h at 30°C. The numbers of yeasts were counted using a hemocytometer. Stock peptide solutions were prepared to a concentration of 320 μg/ml in distilled water, and were then serially diluted twofold, to 5 μg/ml. 100 μl aliquots of the diluted culture media containing candida cells (1 x 10^3) were dispensed into the wells of 96-well polypropylene microtiter plates (Costar 3879, Corning, NY), to which peptide solution (11 μl) was then added. In the experiments conducted to assess the candidacidal activity of peptides in the presence of salt, we used LYM supplemented with 150 mM NaCl for the culture medium, which was mixed with the peptide solution. The antifungal activities were evaluated after 24 h of incubation at 30°C by the observation of visible turbidity the wells. […]

The subject of assay [2] is C.albicans CCARM 14021. It is filed as cell-based, Candida albicans. The procedure:
as §1, §2

The subject of assay [3] is C.albicans CCARM 14020. The format is cell-based, Candida albicans. Particulars: CCARM 14020, 24 h. The protocol:
as §1, §2

Assay [4] relates to C.albicans CCARM 14022. The format is cell-based, Candida albicans. The protocol: as §1, §2
Assay [5] deals with all tested Candida strains. It is filed as cell-based. Particulars: 4 h. The protocol: as §1, §2
Assay [6] concerns C. guilliermondi CCARM 14018. The format is cell-based. Particulars: CCARM 14018, 24 h. The procedure:
as §1, §2

[7] abbreviates: broth dilution, LYM broth, 24 h at 30°C, interval a–b.

Read-outs that look alike come from different tables or passages of the source. Where a SMILES comes first, the peptide text is derived from it. Bridges are numbered along the chain shown (N, C = ends). Roman numbers before positions name the chains, in order. Where no end group is shown, it is not given here.

Turning to `CC(C)C[C@H](NC(=O)CNC(=O)[C@H](Cc1c[nH]cn1)NC(=O)[C@H](Cc1c[nH]cn1)NC(=O)[C@H](CCCNC(=N)N)NC(=O)[C@H](CCCCN)NC(=O)[C@H](C)N)C(=O)N[C@@H](CC(N)=O)C(=O)N[C@@H](CSSC[C@H](NC(=O)[C@H](CC(N)=O)NC(=O)[C@H](CC(C)C)NC(=O)CNC(=O)[C@H](Cc1c[nH]cn1)NC(=O)[C@H](Cc1c[nH]cn1)NC(=O)[C@H](CCCNC(=N)N)NC(=O)[C@H](CCCCN)NC(=O)[C@H](C)N)C(=O)N[C@@H](C)C(=O)N[C@@H](CCCCN)C(=O)NCC(=O)N[C@H](C(=O)N[C@@H](CC(C)C)C(=O)N[C@@H](C)C(N)=O)C(C)C)C(=O)N[C@@H](C)C(=O)N[C@@H](CCCCN)C(=O)NCC(=O)N[C@H](C(=O)N[C@@H](CC(C)C)C(=O)N[C@@H](C)C(N)=O)C(C)C` [di-PH1] (I: H-AKRHHGLNCAKGVLA-NH2 / II: H-AKRHHGLNCAKGVLA-NH2; disulfide I:9-II:9 (inferred); N-terminus assumed), the MICs fell in the range of 16 to 32 µg/mL in assay [1]; 4 to 8 µg/mL in assay [2] (CCARM 14021, 24 h); 16 to 32 µg/mL in assay [3]; 4 to 8 µg/mL in assay [4] (CCARM 14022, 24 h).
Consider AKRHHGLNCAKGVLA-NH2 [PH1], for which the MICs was 16 to 32 µg/mL in assay [1]; 8 to 16 µg/mL in assay [2] (CCARM 14021, 24 h); 16 to 32 µg/mL in assay [3]; 8 to 16 µg/mL in assay [4] (CCARM 14022, 24 h).
As for WLNAKRHHGYKRKFH-NH2 [WP1], the MICs was 4 to 8 µg/mL in assay [1]; 8 to 16 µg/mL in assay [2] (CCARM 14021, 24 h); 4 to 8 µg/mL in assay [3]; 32< μg/ml in assay [4] (setting [7]).
Turning to ALLHHGYKRKFH-NH2 [HHP2], the MICs in assay [1] was 16 to 32 µg/mL; in assay [2] (setting [7]), 32< μg/ml; in assay [3] it was 8 to 16 µg/mL; in assay [4] (setting [7]), 32< μg/ml.
The compound WLNALLHHGYKRKFH-NH2 [HHP1] yielded an MIC values in assay [5] of 2 to 4 µg/mL. Moreover, the MICs in assay [6] was 1 to 2 µg/mL; in assay [1], 2 to 4 µg/mL; in assay [2] (CCARM 14021, 24 h) it was 2 to 4 µg/mL; in assay [3], 2 to 4 µg/mL; in assay [4] (CCARM 14022, 24 h), 4 to 8 µg/mL.
For AKRHHGLNCAKFH-NH2 [PH2], the MICs in assay [1] was in the range of 1 to 2 µg/mL; in assay [2] (CCARM 14021, 24 h), 1 to 2 µg/mL; in assay [3] it was 1 to 2 µg/mL; in assay [4] (CCARM 14022, 24 h) it was 8 to 16 µg/mL.
